Columns and labels:
Type in all cases: in vivo, rat
IL-6 protein = assay: Cytokine protein estimation by ELISA at L5 spinal cord; conditions: propentofylline 10 micrograms intrathecally for 5 days during induction of morphine tolerance
Experimental: (§1) Quantitative determination of IL-1β, TNF-α and IL-6 protein was performed on the L5 spinal cord of the rats. […] Briefly, weighed sections of L5 spinal cord were homogenized in a homogenization buffer consisting of a protease inhibitor using the a Power Gen 125 tissue tearer (Fisher Scientific, Suwanee, Ga.). Samples were spun at 20,000×g for 30 minutes at 4° C. Supernatant was aliquoted and stored at −80° C. for future protein quantification. IL-1β and TNF-α (R&D Systems, Minneapolis, Minn.) and IL-6 (Biosource, Camarillo, Calif.) protein concentrations were determined utilizing the quantitative sandwich enzyme immunoassay.

IL-1β protein = assay: as above; conditions: propentofylline 10 micrograms intrathecally for 5 days during induction of morphine tolerance
Experimental: as §1

GLT-1 protein = assay: Western blot analysis of ipsilateral lumbar spinal cord; conditions: day 12
Experimental: (§2) Experiments were performed to determine how propentofylline-induced suppression of glial activation contribute to reduced behavioral hypersensitivity after nerve injury. In a preventative paradigm, 10 μg of propentofylline (Sigma) to male Sprague-Dawley rats in 40 μl of sterile saline, or saline vehicle alone was administered intrathecally (i.t.) by lumbar puncture at the L4/5 level under brief halothane anesthesia (n=6-8/group). Treatment began one hour prior to L5 spinal nerve transection and continued daily in the evening until day 4 or 12 post-transection. Rats received either an L5 spinal nerve transection or sham surgery on day 0. The development of mechanical allodynia was monitored as described above in the morning at approximately 15 hours post-propentofylline or saline injection. Rats were euthanized on day 4 or 12 post-transection and tissue was further processed by real time RT-PCR, Western blot, or immunohistochemistry for determination of levels and rate of synthesis of the glutamate transporters GLT-1 and GLAST.
(§3) Tissue was collected from 4-5 rats/group on postoperative days 4 or 12. […]
(§4) Protein obtained from L5 lumbar spinal cord was quantified using the Lowry method (DC assay, Bio-Rad, Richmond, Calif.). […]

GLAST protein = assay: as above; conditions: day 4
Experimental: as §2, §3, §4

Male Sprague-Dawley rats [1] = assay: Paw pressure test (Analgesy-Meter), morphine withdrawal-induced mechanical hyperalgesia
Experimental: (§5) Male Sprague-Dawley rats (175-200 grams, Harlan, Indianapolis, Ind.) were divided into two groups (n=8 per group). Rats received subcutaneous injections of either saline or morphine (10 mg/kg; Sigma, St. Louis, Mo.) twice daily at 0800 to 0900 and 1600-1700 hour for 5 days in order to induce opioid tolerance. Chronic morphine withdrawal-induced hyperalgesia and allodynia were assessed in the animals 16 hours after the last injection of morphine. Following the recording of morphine withdrawal-induced hyperalgesia and allodynia, animals were treated with morphine (5 microgram) acutely via lumbar intrathecal injection to study the expression of morphine tolerance. Acute analgesic activity or intrathecal morphine in morphine-tolerant and chronic aline-treated rats were evaluated by mechanical (Analgesy-Meter) and thermal (tail-flick) test paradigms. Behaviors recorded prior to the acute administration of intrathecal morphine served as the basal latency measures.
(§6) With an understanding of the effects of morphine alone, separate groups of rats (n=8) received with saline or morphine (10 mg/kg subcutaneously, twice daily for 5 days) and also received once daily injections (at 1100 to 1200 hour) of propentofylline (1 and 10 micrograms) or saline via direct lumbar puncture during the induction of morphine tolerance. Again, chronic morphine withdrawal-induced hyperalgesia and allodynia were assessed in the animals 16 hours after the last subcutaneous morphine injection. Following the recording of morphine withdrawal-induced hyperalgesia and allodynia, animals were treated with morphine (5 micrograms) acutely via lumbar puncture to study the expression of morphine tolerance. As before, the acute analgesic activity of intrathecal morphine in morphine-tolerant and saline-injected rats was evaluated by mechanical (Analgesy-Meter) and thermal (tail-flick) test paradigms. Behavior recorded prior to the acute administration of intrathecal morphine served as the basal latency.
(§7) In blinded testing, rats were subjected to sequential series of 10 tactile stimulations to the dorsal surface of the ipsilateral hindpaw using […] von Frey filaments (Stoelting Co., WoodDale, Ill.) sequentially. The number of foot withdrawals to this normally non-noxious stimulus determined mechanical allodynia. Mechanical sensitivity was assessed by recording the total number of responses elicited during three successive trials separated by at least 10 minutes. The pressure required to elicit paw withdrawal, the paw pressure threshold was determined.

IL-6 mRNA = assay: RNase protection assay, cytokine mRNA at L5 lumbar spinal cord; conditions: propentofylline 10 micrograms intrathecally for 5 days during induction of morphine tolerance
Experimental: After behavioral testing for reactions to the combined treatment, rats were sacrificed and decapitated. An 18-gauge needle was inserted into the caudal end of the vertebral column and the spinal cord was expelled with ice-cold phosphate-buffered saline. The spinal cord was frozen immediately on dry ice and stored at −80° C. until homogenization. The L5 lumbar spinal cord was isolated from the intact frozen cord at the time of mRNA and protein quantification. Total RNA was isolated from the L5 spinal cord by the TRIzol extraction method (Invitrogen Corporation, Carlsbad, Calif).
Assessment of the temporal cytokine mRNA expression in the L5 lumber spinal cord was performed using a Ribonuclease Protection Assay technique. A Multiprobe RPAse kit was used (Pharmingen, San Diego, Calif.). Total RNA (15 μg) was hybridized to ^32P-labeled antisense RNA probes transcribed using the rat cytokine-1 (rCK-1) multiprobe template set resulting in double-stranded target RNA. After Rnase digestion, protected RNA and probe were resolved on a denaturing polyacrylamide gel and visualized by overnight autoradiography. Quantitative image analysis was employed to compare mRNA levels based on band intensities for each cytokine. The intensity of each band was measured using image analysis software and assigned an arbitrary unit based on the measured intensity levels. The value for the normalized quantity for each band was obtained by dividing by the L32 house-keeping gene control. Individual mRNA concentration was calculated as the ratio of the expression compared with saline-treated animals in which normal values were weighted as 1.

Male Sprague-Dawley rats [2] = assay: Mechanical allodynia (von Frey filaments), morphine withdrawal
Experimental: as §5, §6
Mechanical sensitivity was measured as the frequency of foot withdrawals elicited by a defined mechanical stimulus. Each rat, under unrestrained conditions, was placed beneath an inverted, ventilated Plexiglas cage upon an elevated aluminum screen surface with 1 cm mesh openings. Animals had been previously acclimated to the environment and the experimenter.
as §7

Male Sprague-Dawley rats [3] = assay: L5 spinal nerve transection model, mechanical allodynia
Experimental: as §2, with “Rats were euthanized on day 4 or 12 post-transection and tissue was further processed by real time RT-PCR, Western blot, or immunohistochemistry for determination of levels and rate of synthesis of the glutamate transporters GLT-1 and GLAST.” left out
Mechanical sensitivity was measured as the frequency of foot withdrawals elicited by a defined mechanical stimulus. […]
as §7, with “The pressure required to elicit paw withdrawal, the paw pressure threshold was determined.” left out

[4] = 16 hours after last morphine injection (10 mg/kg s.c. twice daily 5 days), propentofylline 1 and 10 micrograms intrathecally for 5 days during induction of tolerance

SMILES: CCCn1cnc2c1c(=O)n(CCCCC(C)=O)c(=O)n2C [propentofylline]
- morphine-induced IL-6 protein levels (IL-6 protein): significantly attenuated
- morphine-induced IL-1β protein levels (IL-1β protein): significantly attenuated
- GLT-1 protein compared with L5 spinal nerve transection alone (GLT-1 protein): significantly elevated
- GLAST protein compared with saline-treated injured rats (GLAST protein): significant decrease
- Paw pressure latency (Male Sprague-Dawley rats [1]; 16 hours after last injection, morphine 10 mg/kg s.c. twice daily 5 days and/or propentofylline 10 micrograms intrathecally once daily 5 days): 119.4 ± 5.4 grams
- morphine withdrawal-induced mechanical hyperalgesia (Male Sprague-Dawley rats [1]; [4]): significantly attenuated
- morphine-induced mRNA upregulation for IL-6 (IL-6 mRNA): significantly attenuated
- morphine withdrawal-induced mechanical allodynia (Male Sprague-Dawley rats [2]; [4]): significantly attenuated
- Mechanical allodynia (2 grams) (Male Sprague-Dawley rats [2]; number of foot withdrawals, 2 grams von Frey filament, morphine 10 mg/kg s.c. twice daily 5 days and/or propentofylline 10 micrograms intrathecally): 0
- Mechanical allodynia (12 grams) (Male Sprague-Dawley rats [2]; number of foot withdrawals, 12 grams von Frey filament, morphine 10 mg/kg s.c. twice daily 5 days and/or propentofylline 10 micrograms intrathecally): 0
- development of mechanical allodynia after L5 spinal nerve transection (Male Sprague-Dawley rats [3]; 10 μg i.t. daily from one hour prior to transection, 12 g Von Frey filament, all time points, vs L5 saline rats): robustly inhibited
- mechanical allodynia after L5 spinal nerve transection compared with normal group (Male Sprague-Dawley rats [3]; 10 μg i.t. daily, day 5, 7, 9 and 12): no longer discernable from the normal group

Reference: patent US7763626B2, “Compositions and method for enhancing the therapeutic activity of opiods in treatment of pain” (Trustees of Dartmouth College, priority 2004, dated 2010)
